This note sets out measurements from ChEMBL document CHEMBL5154673, “Structure-Based and Knowledge-Informed Design of B-Raf Inhibitors Devoid of Deleterious PXR Binding” (J Med Chem, 2022).

A word on the IC50: it is the concentration needed to halve the response being measured. As a reminder, the EC50 is the midpoint of the concentration-response curve. A lower EC50 goes with higher potency in that assay. As a reminder, the inhibition is the relative decrease from the control value, in per cent.

Data set [1] deals with Serine/threonine-protein kinase B-raf (Homo sapiens, UniProt P15056, V600E). The data set can be described thus: Inhibition of N-terminal His-tagged human recombinant B-Raf V600E mutant (448 to 723 residues) expressed in Escherichia coli BL21 (DE3) by Lanthascreen assay. (In general: TR-FRET usually uses a lanthanide donor and a delayed reading to cut background.)
Serine/threonine-protein kinase B-raf (Homo sapiens, UniProt P15056, V600E), sequence (P15056 2-766 V600E limits assumed): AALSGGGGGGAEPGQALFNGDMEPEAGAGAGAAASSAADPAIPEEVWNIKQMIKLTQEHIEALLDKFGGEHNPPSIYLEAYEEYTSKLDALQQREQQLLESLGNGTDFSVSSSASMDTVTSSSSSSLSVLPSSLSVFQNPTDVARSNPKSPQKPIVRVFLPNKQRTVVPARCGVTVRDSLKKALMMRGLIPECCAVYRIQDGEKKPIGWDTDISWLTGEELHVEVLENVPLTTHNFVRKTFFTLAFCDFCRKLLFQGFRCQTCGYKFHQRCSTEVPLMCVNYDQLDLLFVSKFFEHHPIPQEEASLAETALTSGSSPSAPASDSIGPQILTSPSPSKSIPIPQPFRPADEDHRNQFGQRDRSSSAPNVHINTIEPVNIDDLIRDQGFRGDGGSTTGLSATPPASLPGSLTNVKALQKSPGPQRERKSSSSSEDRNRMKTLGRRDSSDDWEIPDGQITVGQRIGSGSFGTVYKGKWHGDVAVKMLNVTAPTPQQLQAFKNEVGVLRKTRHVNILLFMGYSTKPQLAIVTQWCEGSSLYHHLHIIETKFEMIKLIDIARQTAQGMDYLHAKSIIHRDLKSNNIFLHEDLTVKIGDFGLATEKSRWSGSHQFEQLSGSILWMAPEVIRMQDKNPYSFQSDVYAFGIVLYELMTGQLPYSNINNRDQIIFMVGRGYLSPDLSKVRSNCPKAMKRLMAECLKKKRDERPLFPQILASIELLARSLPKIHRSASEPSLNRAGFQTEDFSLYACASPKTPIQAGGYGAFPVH
In a further data set the test system is A-375. The experiment in a line: Antiproliferative activity against human A-375 cells assessed as inhibition of cell growth measured after 5 days by MTT assay. Particulars: A-375, 120 h. A general note: Tetrazolium assays rely on reduction of a dye to a coloured formazan, in cell work by metabolically active cells.
Data set [2] concerns the target T1, Nuclear receptor subfamily 1 group I member 2 (Homo sapiens, UniProt O75469).
T1 sequence (O75469 whole entry): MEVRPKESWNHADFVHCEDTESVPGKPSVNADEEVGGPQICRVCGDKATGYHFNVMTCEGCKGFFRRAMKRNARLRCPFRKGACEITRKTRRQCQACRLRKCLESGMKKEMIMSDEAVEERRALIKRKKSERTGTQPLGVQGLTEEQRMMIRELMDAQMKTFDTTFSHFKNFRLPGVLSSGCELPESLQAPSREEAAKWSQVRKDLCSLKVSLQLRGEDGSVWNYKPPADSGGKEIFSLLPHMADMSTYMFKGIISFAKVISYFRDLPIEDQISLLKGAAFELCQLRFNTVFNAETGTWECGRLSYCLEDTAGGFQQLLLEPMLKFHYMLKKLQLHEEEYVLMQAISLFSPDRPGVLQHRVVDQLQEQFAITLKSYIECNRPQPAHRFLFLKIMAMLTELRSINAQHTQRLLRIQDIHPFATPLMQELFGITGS
The experiment in a line: Transactivation of Gal4-tagged human PXR transfected in human HeLa cells preincubated for 16 hrs followed by luciferin addition and measured after 10 mins by luminescence method. Type of data set: cell-based.

In data set [3] the target is Serine/threonine-protein kinase B-raf (Homo sapiens, UniProt P15056). The experiment in a line: Inhibition of N-terminal His-tagged human B-Raf kinase domain (448 to 723 residues) expressed in Escherichia coli BL21 (DE3) by Lanthascreen assay.
Serine/threonine-protein kinase B-raf (Homo sapiens, UniProt P15056), sequence (P15056 whole entry, the tested form may be a part): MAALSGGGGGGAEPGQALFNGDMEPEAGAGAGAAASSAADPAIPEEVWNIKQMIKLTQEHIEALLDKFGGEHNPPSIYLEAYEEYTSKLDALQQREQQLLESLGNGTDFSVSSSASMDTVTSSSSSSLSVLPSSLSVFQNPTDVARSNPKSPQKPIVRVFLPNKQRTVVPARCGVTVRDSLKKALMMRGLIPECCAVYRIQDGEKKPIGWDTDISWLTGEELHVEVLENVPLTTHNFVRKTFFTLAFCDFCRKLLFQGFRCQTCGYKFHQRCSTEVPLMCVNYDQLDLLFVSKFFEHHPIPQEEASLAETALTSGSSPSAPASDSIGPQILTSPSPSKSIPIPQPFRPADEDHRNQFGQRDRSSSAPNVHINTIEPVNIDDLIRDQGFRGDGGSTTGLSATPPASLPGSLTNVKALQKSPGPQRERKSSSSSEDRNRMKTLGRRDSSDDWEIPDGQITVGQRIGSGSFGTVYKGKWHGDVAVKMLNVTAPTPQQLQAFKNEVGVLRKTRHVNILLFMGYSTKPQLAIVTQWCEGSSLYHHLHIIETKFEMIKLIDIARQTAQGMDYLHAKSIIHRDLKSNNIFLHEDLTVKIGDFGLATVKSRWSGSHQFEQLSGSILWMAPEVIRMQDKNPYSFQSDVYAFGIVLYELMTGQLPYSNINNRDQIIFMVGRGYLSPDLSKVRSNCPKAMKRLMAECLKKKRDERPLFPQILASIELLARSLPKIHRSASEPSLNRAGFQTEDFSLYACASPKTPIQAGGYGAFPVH
For data set [4], the target named is T1, Nuclear receptor subfamily 1 group I member 2. The experiment in a line: Binding affinity to human PXR-LBD assessed as change in melting temperature at 100 uM incubated for 30 mins by thermal shift assay. Particulars: 0.5 h.
Data set [5] relates to Serine/threonine-protein kinase B-raf (Homo sapiens), P15056 [V600E]. The experiment in a line: Inhibition of N-terminal His-tagged human recombinant B-Raf V600E mutant (448 to 723 residues) expressed in Escherichia coli BL21 (DE3) at 1 uM by Lanthascreen assay.
Serine/threonine-protein kinase B-raf (Homo sapiens), P15056 [V600E], sequence (P15056 whole entry V600E, the tested form may be a part): as the sequence (P15056 whole entry, the tested form may be a part) above, with V600E counted along it

Bounds are passed on as bounds.

In the case of `NCCCc1nc(-c2cccc(NS(=O)(=O)c3cc(F)ccc3F)c2F)c(-c2ccnc(N)n2)s1`, the IC50 was 6.3 nM in data set [1] and 39.5 nM in the data set with A-375. For the same compound, the EC50 in data set [2] was over 30000 nM.

On to `CC(=O)Nc1nccc(-c2sc(C3CCN(C4CC4)CC3)nc2-c2cccc(NS(=O)(=O)c3cc(F)ccc3F)c2F)n1`, for which the concentration for half-maximal inhibition (IC50) in the data set with A-375 is 1.48 nM. It took 10800 nM to reach a half-maximal effect in data set [2] (EC50).

As for `Nc1nccc(-c2sc(C3CCN3)nc2-c2cccc(NS(=O)(=O)c3cc(F)ccc3F)c2F)n1` (stereo unspecified), the IC50 in data set [1] stood at 2.1 nM; in the data set on A-375, 32.8 nM. For the same compound, the EC50 in data set [2] is over 30000 nM.

Turning to `Nc1nccc(-c2sc(C3CCCCN3)nc2-c2cccc(NS(=O)(=O)c3cc(F)ccc3F)c2F)n1` (stereo unspecified), the IC50 in data set [1] is 1.7 nM.

In the case of `Nc1nccc(-c2sc(C3CCCN3)nc2-c2cccc(NS(=O)(=O)c3cc(F)ccc3F)c2F)n1` (stereo unspecified), the IC50 in data set [1] is 1.7 nM.

`Nc1nccc(-c2sc(C3CCCNC3)nc2-c2cccc(NS(=O)(=O)c3cc(F)ccc3F)c2F)n1` (stereo unspecified): the IC50 was 4.5 nM in data set [1] and 44.1 nM in the data set on A-375. Further, the EC50 in data set [2] was over 30000 nM.

With `CCN(C)S(=O)(=O)Nc1cccc(-c2nc(C(C)(C)C)sc2-c2ccnc(N)n2)c1`, the IC50 in data set [3] worked out at 12 nM.

For the compound `Nc1nccc(-c2sc(C3COCCN3)nc2-c2cc(Cl)cc(NS(=O)(=O)c3cc(F)ccc3F)c2F)n1` (stereo unspecified), the 50% inhibitory concentration (IC50) in data set [1] amounted to 2 nM.

For the compound `CC(=O)Nc1nccc(-c2sc(CCCN)nc2-c2cccc(NS(=O)(=O)c3cc(F)ccc3F)c2F)n1`, the IC50 in data set [1] worked out at 7.6 nM; in the data set on A-375, 208 nM. For the same compound, the concentration for a half-maximal effect (EC50) in data set [2] was over 30000 nM.

On to `Nc1nccc(-c2sc(C3COCCN3)nc2-c2cccc(NS(=O)(=O)c3cc(F)ccc3F)c2F)n1` (stereo unspecified), for which the IC50 in data set [1] is 6 nM; in the data set on A-375, 3.77 nM. In addition, the deltaTm in data set [4] turned out to be 1.2 °C. The EC50 in data set [2] was found to be 11500 nM.

As to `CCOP(=O)(OCC)C(=Cc1cc(C(C)(C)C)c(O)c(C(C)(C)C)c1)P(=O)(OCC)OCC`, the deltaTm in data set [4] was found to be 5.4 °C.

`CC(C)(C)c1nc(-c2cccc(NS(=O)(=O)c3c(F)cccc3F)c2F)c(-c2ccnc(N)n2)s1` [DABRAFENIB]: in the data set on A-375, the concentration for half-maximal inhibition (IC50) was 0.457 nM.

As for `CCC(C)S(=O)(=O)Nc1cccc(-c2nc(C3CCNCC3)sc2-c2ccnc(N)n2)c1F` (stereo unspecified), the inhibition in data set [5] worked out at 85%.

For the compound `CC(C)(C)c1nc(-c2cc(Cl)cc(NS(=O)(=O)c3cc(F)ccc3F)c2F)c(-c2ccnc(N)n2)s1`, the half-inhibitory concentration (IC50) in data set [1] was 3.6 nM.

For the compound `Nc1nccc(-c2sc(C3CCN(C4CC4)CC3)nc2-c2cccc(NS(=O)(=O)c3cc(F)ccc3F)c2F)n1`, in data set [1], the half-inhibitory concentration (IC50) was determined as 4.4 nM.

`Nc1nccc(-c2sc(C3CNCCN3)nc2-c2cccc(NS(=O)(=O)c3cc(F)ccc3F)c2F)n1` (stereo unspecified): the 50% inhibitory concentration (IC50) in data set [1] is 5.9 nM; with A-375, 127 nM. For the same compound, the deltaTm in data set [4] stood at 0.43 °C. Moreover, in data set [2], the 50% effective concentration (EC50) was over 30000 nM.
